Where two headings read alike, the source gives them in different places.
Key:
poly(dA-dT)n = experiment: DNA thermal melting; assay type: binding; details: thermal melting with poly(dA-dT); compared with DB766
[1] = test system: intracellular Leishmania amazonensis; experiment: Efficacy against intracellular Leishmania amazonensis parasites; assay type: cell-based; details: read-out: IC50 L. a., intracellular L. amazonensis
[2] = Preliminary in vivo toxicity evaluation in uninfected animals; set-up: species or system mice; details: for Adverse reaction after dosing: mouse, in vivo, ip, 30 mg/kg
Leishmania = details: read-out: IC50 value (antileishmanial, in vitro); cited from earlier work
[3] = test system: intracellular Leishmania donovani; details: read-out: IC50 L. d.; cited from earlier work
[4] = test system: intracellular Leishmania amazonensis; details: read-out: IC50 L. a.; cited from earlier work

| Structure (SMILES) | DNA binding (in words) (poly(dA-dT)n) | Toxicity to mice (in words) [2] | Adverse reaction after dosing [2] | other results |
| --- | --- | --- | --- | --- |
| Cl.Cl.N=C(Nc1ccc(NC(=N)c2ccccn2)cc1)c1ccccn1 [3a, N,N'-(1,4-phenylene)dipicolinimidamide hydrochloride] | essentially do not bind to DNA | – | – | – |
| Cl.Cl.N=C(Nc1ccc(NC(=N)c2ncccn2)cc1)c1ncccn1 [3b, N,N'-(1,4-phenylene)dipyrimidine-2-carboximidamide hydrochloride] | essentially do not bind to DNA | – | – | – |
| Cl.Cl.N=C(Nc1ccc(-c2ccc(NC(=N)c3ccccn3)cc2)cc1)c1ccccn1 [9a, N,N'-([1,1'-biphenyl]-4,4'-diyl)dipicolinimidamide hydrochloride] | binds with the same affinity as DB766 | quite toxic to mice | severe tremors | IC50 [1]: < 1000 nM |
| Cl.Cl.N=C(Nc1ccc(Oc2ccc(NC(=N)c3ccccn3)cc2)cc1)c1ccccn1 [9c, N,N'-(oxybis(4,1-phenylene))dipicolinimidamide hydrochloride] | – | quite toxic to mice | severe tremors | IC50 [1]: < 1000 nM |
| CC(C)Oc1cc(NC(=N)c2ccccn2)ccc1-c1ccc(-c2ccc(NC(=N)c3ccccn3)cc2OC(C)C)o1 [DB766] | – | – | – | IC50 (Leishmania): < 100 nM; IC50 [3]: 36 nM; IC50 [4]: 87 nM |
| Cl.Cl.N=C(Nc1ccccn1)c1ccc(C(=N)Nc2ccccn2)cc1 [compound 6, N ^1,N ^4-di(pyridin-2-yl)terephthalimidamide hydrochloride] | essentially do not bind to DNA | – | – | – |
| CC(C)Oc1cc(NC(=N)c2ccccn2)ccc1-c1ccc(NC(=N)c2ccccn2)cc1OC(C)C.Cl.Cl [compound 13, N,N'-(2,2'-di-isopropoxy-[1,1'-biphenyl]-4,4'-diyl)dipicolinimidamide hydrochloride] | essentially does not bind to DNA | quite toxic to mice | severe tremors | – |
